Assay results taken from patent US11051515B2, “3-acyl-benzamides and their use as herbicides” (Bayer Aktiengesellschaft, priority 2017, dated 2021).

Columns and labels:
STEME = assay: Post-emergence action against STEME; assay type: in vivo, Stellaria media; settings: Stellaria media, 504 h; post-emergence, dosage 80 g/ha
How it was run: (§1)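 Post-emergence foliar spray on greenhouse plants at the one-leaf stage, using wettable-powder or emulsion-concentrate formulations in water (600 to […], plus 0.2% wetting agent). Damage scored by eye roughly 3 weeks later against untreated plants: 0% = like control, 100% = dead.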

VERPE [1] = assay: Post-emergence action against VERPE; assay type: in vivo, Veronica persica; settings: Veronica persica, 504 h, dosage 80 g/ha
How it was run: as §1

AVEFA [2] = assay: Pre-emergence action against AVEFA; assay type: in vivo, Avena fatua; settings: Avena fatua, 504 h, dosage 320 g/ha, scored visually after 3 weeks vs untreated controls, read-out: Pre-emergence action against AVEFA (herbicidal activity)
How it was run: (§2)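 Seeds sown in sandy loam in wood-fiber pots and covered with soil. Greenhouse growth; visual damage scored after 3 weeks versus untreated controls (100% = dead, 0% = like control).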

SETVI [3] = assay: Post-emergence action against SETVI; assay type: in vivo, Setaria viridis; settings: Setaria viridis, 504 h; post-emergence, dosage 80 g/ha, visual assessment about 3 weeks after treatment vs untreated controls; read-out: Post-emergence action against SETVI (herbicidal action in percent)
How it was run: as §1

AMARE = assay: Post-emergence action against AMARE; assay type: in vivo, Amaranthus retroflexus; settings: Amaranthus retroflexus, 504 h; post-emergence, dosage 80 g/ha, visual assessment about 3 weeks after treatment vs untreated controls; read-out: Post-emergence action against AMARE (herbicidal action in percent)
How it was run: as §1

POLCO [4] = assay: Post-emergence action against POLCO; assay type: in vivo, Polygonum convolvulus; settings: Fallopia convolvulus, 504 h; post-emergence, dosage 80 g/ha
How it was run: as §1

ALOMY = assay: Post-emergence action against ALOMY; assay type: in vivo, Alopecurus myosuroides; settings: Alopecurus myosuroides, 504 h; Dosage 80 g/ha, post-emergence
How it was run: as §1

CYPES [5] = assay: Pre-emergence action against CYPES; assay type: in vivo, Cyperus esculentus; settings: Cyperus esculentus, 504 h; pre-emergence, dosage 320 g/ha, scored visually after 3 weeks vs untreated controls; read-out: Pre-emergence action against CYPES (herbicidal activity)
How it was run: as §2

CYPES [6] = assay: Post-emergence action against CYPES; assay type: in vivo, Cyperus esculentus; settings: Cyperus esculentus, 504 h; post-emergence, dosage 80 g/ha, visual assessment about 3 weeks after treatment vs untreated controls; read-out: Post-emergence action against CYPES (herbicidal action in percent)
How it was run: as §1

VERPE [7] = assay: Pre-emergence action against VERPE; assay type: in vivo, Veronica persica; settings: Veronica persica, 504 h; Dosage 320 g/ha, pre-emergence
How it was run: as §2

POLCO [8] = assay: Pre-emergence action against POLCO; assay type: in vivo, Polygonum convolvulus; settings: Fallopia convolvulus, 504 h; Dosage 320 g/ha, pre-emergence
How it was run: as §2

VIOTR = assay: Pre-emergence action against VIOTR; assay type: in vivo, Viola tricolor; settings: Viola tricolor, 504 h; Dosage 320 g/ha, pre-emergence
How it was run: as §2

ECHCG [9] = assay: Pre-emergence action against ECHCG; assay type: in vivo, Echinochloa crus-galli; settings: Echinochloa crus-galli, 504 h; pre-emergence, dosage 320 g/ha, scored visually after 3 weeks vs untreated controls; read-out: Pre-emergence action against ECHCG (herbicidal activity)
How it was run: as §2

PHBPU = assay: Post-emergence action against PHBPU; assay type: in vivo, Pharbitis purpurea; settings: Ipomoea purpurea, 504 h; post-emergence, dosage 80 g/ha
How it was run: as §1

AVEFA [10] = assay: Post-emergence action against AVEFA; assay type: in vivo, Avena fatua; settings: Avena fatua, 504 h; post-emergence, dosage 80 g/ha, visual assessment about 3 weeks after treatment vs untreated controls; read-out: Post-emergence action against AVEFA (herbicidal action in percent)
How it was run: as §1

ABUTH = assay: Post-emergence action against ABUTH; assay type: in vivo, Abutilon theophrasti; settings: Abutilon theophrasti, 504 h; post-emergence, dosage 80 g/ha, visual assessment about 3 weeks after treatment vs untreated controls; read-out: Post-emergence action against ABUTH (herbicidal action in percent)
How it was run: as §1

MATIN = assay: Post-emergence action against MATIN; assay type: in vivo, Matricaria inodora; settings: Tripleurospermum inodorum, 504 h; post-emergence, dosage 80 g/ha, visual assessment about 3 weeks after treatment vs untreated controls; read-out: Post-emergence action against MATIN (herbicidal action in percent)
How it was run: as §1

ECHCG [11] = assay: Post-emergence action against ECHCG; assay type: in vivo, Echinochloa crus-galli; settings: Echinochloa crus-galli, 504 h; post-emergence, dosage 80 g/ha, visual assessment about 3 weeks after treatment vs untreated controls; read-out: Post-emergence action against ECHCG (herbicidal action in percent)
How it was run: as §1

SETVI [12] = assay: Pre-emergence action against SETVI; assay type: in vivo, Setaria viridis; settings: Setaria viridis, 504 h; pre-emergence, dosage 320 g/ha, scored visually after 3 weeks vs untreated controls; read-out: SETVI (Table B8, pre-emergence herbicidal activity)
How it was run: as §2

Compound	pest or weed control at 80 g/ha (STEME) [%]	pest or weed control at 80 g/ha (VERPE [1]) [%]	pest or weed control at 320 g/ha (AVEFA [2]) [%]	pest or weed control at 80 g/ha (SETVI [3]) [%]	pest or weed control at 80 g/ha (AMARE) [%]	pest or weed control at 80 g/ha (POLCO [4]) [%]	pest or weed control at 80 g/ha (ALOMY) [%]	pest or weed control at 320 g/ha (CYPES [5]) [%]	pest or weed control at 80 g/ha (CYPES [6]) [%]	pest or weed control at 320 g/ha (VERPE [7]) [%]	pest or weed control at 320 g/ha (POLCO [8]) [%]	pest or weed control at 320 g/ha (VIOTR) [%]	pest or weed control at 320 g/ha (ECHCG [9]) [%]	pest or weed control at 80 g/ha (PHBPU) [%]	pest or weed control at 80 g/ha (AVEFA [10]) [%]	pest or weed control at 80 g/ha (ABUTH) [%]	pest or weed control at 80 g/ha (MATIN) [%]	pest or weed control at 80 g/ha (ECHCG [11]) [%]	pest or weed control at 320 g/ha (SETVI [12]) [%]
Cn1nnnc1NC(=O)c1ccc(C(F)(F)F)c(C(=O)C2CC2)c1Cl [1-141]	100	100	100	100	100	100	100	100	90	100	80	100	100	100	100	100	90	100	100
CSc1c(C(=O)Nc2nnnn2C)ccc(C(F)(F)F)c1C(=O)C1CC1 [1-60]	100	100	100	100	100	100	100	100	90	100	100	100	100	90	100	90	100	100	100
Cn1nnnc1NC(=O)c1ccc(C(F)F)c(C(=O)C2CC2)c1Cl [1-168]	100	100	100	100	100	100	100	90	100	100	90	100	100	100	100	100	100	100	100
COc1c(C(=O)Nc2nnnn2C)ccc(C(F)(F)F)c1C(=O)C1CC1 [1-50]	100	100	100	100	90	100	80	100	80	100	90	100	100	100	100	100	100	90	100
